Experimental data: patent publication US20250304973A1, “HIGH-AFFINITY THROMBIN APTAMERS AND METHODS OF USE” (Ayass Bioscience LLC, priority 2024, published 2025)
pIC50: −log10 of the molar value. Entries after “also recorded” stand apart in the source; their conditions may differ.

Experiments:
[1] = Onset, consistency and reversal of anticoagulant effect (Table 3); type: in vivo; settings: Table 3, AYA1809002
[2] = Pharmacokinetics and renal clearance (Table 3); type: in vivo; settings: Table 3, AYA1809002
whole human blood = assay: Dose-dependent prothrombin time (PT) in whole blood; type: biochemical; settings: 1, 2, 3, 4 uM; 2 h room temperature; citrated whole human blood
Experimental: 139. […] PT time was measured using RecombiPlasTin 2G for quantitative determination in human citrated plasma of PT and Fibrinogen on an ACLTOP coagulation analyzer manufactured by Instrumentation Laboratory (Bedford, MA, USA). To assess the activity of the aptamers in a dose-dependent manner in whole blood, human blood samples were collected in citrate-treated tubes. The blood samples were then incubated at room temperature for 2 h in the absence or presence of varying concentrations of the thrombin aptamers. To measure the Prothrombin Time (PT) on the ACLTOP coagulation analyzer, plasma was obtained by centrifuging the samples at 1500×g for 10 min at 4° C. For the dose dependence study, concentrations of 1 uM, 2 uM, 3 uM, and 4 uM of AYA1809002 and AYA1809004 were utilized.
156. To facilitate future applications, gaining a comprehensive understanding of the activity of aptamers in whole blood is of paramount importance. To assess their effectiveness, we tested the selected aptamers at various concentrations in whole blood to evaluate their impact on Factor II activity and PT time. Human blood samples were collected in citrate- treated tubes. The blood samples were then incubated at room temperature for 2 h in the absence or presence of varying concentrations of thrombin aptamers. […]

[3] = biological target: thrombin over other serine proteases (Homo sapiens, UniProt P00734); assay: Selectivity for thrombin over other serine proteases (Table 3); type: biochemical; settings: Table 3, AYA1809002
thrombin = thrombin (Homo sapiens, UniProt P00734); assay: Thrombin inhibition IC50 (Table 3); type: biochemical; settings: Table 3, AYA1809002
[4] = Storage stability (Table 3); type: physicochemical; settings: after 24 months at room temperature
[5] = Major bleeding rate in animal studies (Table 3); type: in vivo
rat whole blood = assay: Factor II activity, PT, APPT and TT in rat whole blood; type: biochemical; settings: dose-dependent manner

Substance | Anticoagulant Effect Consistency: inter-individual variability in aPTT prolongation [1] [% inter-individual] | Onset of Action: peak effect [1] | Renal Clearance [2] [%] | effect on prothrombin time (PT) in whole blood (whole human blood) | selectivity for thrombin over other serine proteases [3] | pIC50 (thrombin) | activity maintained on storage [4] | major bleeding rate [5] | APPT in rat whole blood (rat whole blood) | Factor II activity in rat whole blood (rat whole blood) | PT in rat whole blood (rat whole blood) | TT in rat whole blood (rat whole blood)
AYA1809002: ssDNA thrombin aptamer GCGGTGTTGCTGGGGTTGGGAGGTTGGAGGAAGCAATCGC | <15 | Peak effect withing 1 hour | <50 | corresponding increase in prothrombin time; also recorded: corresponding increase in PT | >100-fold selectivity | ≥ 9.30 | Maintain >95% | (≤2% major bleeding | extend | inhibit | extend | extend
AYA1809004: ssDNA thrombin aptamer TCGTCAAGGTACGGTTGGGGGGGTGGGTGTTGACGTTGAA (DNA, backbone not given here) | – | – | – | corresponding increase in prothrombin time | – | – | – | – | – | – | – | –
